Source: US8283479B2, “CXCR2 inhibitors” (Sanofi-Aventis Deutschland GmbH, priority 2004, dated 2012)
pIC50: −log10 of the molar value.

Target: T1, human CXCR2 (Homo sapiens, UniProt P25025)
T1 construct: expressed in transfected cells; host or cells: CHO-K1
T1 sequence (P25025 1-360): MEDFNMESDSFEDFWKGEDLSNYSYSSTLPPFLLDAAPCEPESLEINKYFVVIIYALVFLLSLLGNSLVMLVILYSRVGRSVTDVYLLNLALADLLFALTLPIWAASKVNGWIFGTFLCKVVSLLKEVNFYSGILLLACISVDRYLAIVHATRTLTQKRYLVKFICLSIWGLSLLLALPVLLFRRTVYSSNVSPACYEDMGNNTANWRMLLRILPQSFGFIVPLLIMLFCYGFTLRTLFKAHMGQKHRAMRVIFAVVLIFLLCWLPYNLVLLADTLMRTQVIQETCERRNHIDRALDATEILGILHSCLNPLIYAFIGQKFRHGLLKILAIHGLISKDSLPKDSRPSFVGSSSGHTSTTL
Assay: CXCR2 inhibition: calcium fluorescence assay (FLIPR)
Type: cell-based
Details: CHO-K1 cells stably transfected with human CXCR2 and Gα16; Fluo-4; % inhibition of calcium response to chemokine (10-100 nM)
From the text: Determination of CXCR2 Inhibition: Calcium Fluorescence Assay (FLIPR)
The assay is based on the detection of intracellular calcium changes detected by the selective, calcium-chelating dye, Fluo-4 (Molecular Probes). A large fluorescence intensity increase is observed upon calcium association with Fluo-4. The dye is delivered to the cell interior using an acetoxymethylester form of Fluo-4, where the intracellular esterase activity results in the charged species being released and trapped within the cytoplasm of the cell. […] By co-expressing the CXCR2 receptor and the promiscuous Gα16 protein, activation of this chemokine receptor is directed into this phospholipase C cascade resulting in intracellular calcium mobilization.
The CHO—K1 cells stably transfected with human CXCR2 and the promiscuous Gα16 protein were maintained in a log phase of growth at 37° C. and 5% CO2 in the following media: Iscove's, 10% FBS, 1× Penicillin-Streptomycin, 400 μg/mL G418 and 350 μg/mL Zeocin. Approximately 24-48 hours prior to the assay, 20,000-30,000 cells/well were plated onto a 96-well black/clear bottomed assay plate (Becton Dickinson) with a well volume of 180 μl. For dye-loading the culture medium was carefully removed and replaced by 100 μl/well dye solution (4 μM Fluo-4 in 135 mM NaCl, 5 mM KCl, 1 mM magnesium sulphate, 5 mM glucose, 20 mM Hepes, 2.5 mM probenecid; pH 7.4). Cells were incubated for 1 h at 37° C., and then washed 3× with buffer. After washing 90 μl buffer/well were left. Increasing concentrations of compound was added in 45 μl buffer (4× concentrated) followed by 10 min incubation at 37° C. Then the chemokine (10-100 nM) was applied in 45 μl buffer (4× concentrated) and the measurement performed for 2 min. The IC50 value of a compound was determined by calculation of % inhibition of total calcium response to the chemokine.

Compound	pIC50
CC(C)(NC(=O)c1cc(Br)c2ccccc2c1OCc1ccc(OC(F)(F)F)cc1)C(=O)O [Example 42, 2-{[4-Bromo-1-(4-trifluoromethoxy-benzyloxy)-naphthalene-2-carbonyl]-amino}-2-methyl-propionic acid]	6.01
CCC(C)(NC(=O)c1ccc2ccccc2c1OCc1ccc(OC(F)(F)F)c(Cl)c1)C(=O)O (centres unmarked) [Example 105, 2-{[1-(3-Chloro-4-trifluoromethoxy-benzyloxy)-naphthalene-2-carbonyl]-amino}-2-methyl-butyric acid]	5.79
O=C(NC1(C(=O)O)CCCC1)c1ccc2ccccc2c1OCc1ccc(C(F)(F)F)cc1 [Example 127, 1-{[1-(4-Trifluoromethyl-benzyloxy)-naphthalene-2-carbonyl]-amino}-cyclopentanecarboxylic acid]	6.00
CCC(C)(NC(=O)c1ccc2ccccc2c1OCc1cc2ccccc2s1)C(=O)O (centres unmarked) [Example 74, 2-{[1-(Benzo[b]thiophen-2-ylmethoxy)-naphthalene-2-carbonyl]-amino}-2-methyl-butyric acid]	6.01

Continued, values first:

pIC50	Compound
5.49	CC(C)(NC(=O)c1ccc2ccccc2c1OCc1ccc2nonc2c1)C(=O)O [Example 5, 2-{[1-(Benzo[1,2,5]oxadiazol-5-ylmethoxy)-naphthalene-2-carbonyl]-amino}-2-methyl-propionic acid]
5.35	CC(C)(NC(=O)c1sc2ccccc2c1OCc1ccc(C(F)(F)F)nc1)C(=O)O [Example 120, 2-Methyl-2-{[3-(6-trifluoromethyl-pyridin-3-ylmethoxy)-benzo[b]thiophene-2-carbonyl]-amino}-propionic acid]
6.15	CC(NC(=O)c1ccc2ccccc2c1OCc1ccc(C(F)(F)F)cc1)C(=O)O (centres unmarked) [Example 110, 2-{[1-(4-Trifluoromethyl-benzyloxy)-naphthalene-2-carbonyl]-amino}-propionic acid]
6.70	CC(C)C(C)(NC(=O)c1sc2ccccc2c1OCc1ccc(C(F)(F)F)cc1)C(=O)O (centres unmarked) [Example 131, 2,3-Dimethyl-2-{[3-(4-trifluoromethyl-benzyloxy)-benzo[b]thiophene-2-carbonyl]-amino}-butyric acid]
